US20250049970A1, “DLL3 TARGETING PEPTIDES AND CONSTRUCTS THEREOF” (MARIANA ONCOLOGY INC., priority 2023, published 2025)
*1 amine or outer side, *2 acyl side, *3 side chain or, on linkers, in order; H or OH if unused. Where a SMILES comes first, the peptide text is derived from it. Bridges are numbered along the chain shown (N, C = ends). [ ]: non-standard residue; d: D form. The star is where a group is joined. Ala(piperidin-4-yl) = O=C([C@H](CC1CCN([*:3])CC1)N[*:1])[*:2]; DOTA = O=C(O)CN1CCN(CC(=O)O)CCN(CC(=O)*)CCN(CC(=O)O)CC1; Phe(4-CF3) = N[C@@H](Cc1ccc(C(F)(F)F)cc1)C(=O)O; Trp(1-Me) = Cn1cc(C[C@H](N)C(=O)O)c2ccccc21; Phe(4-F) = N[C@@H](Cc1ccc(F)cc1)C(=O)O; 2Nal = N[C@@H](Cc1ccc2ccccc2c1)C(=O)O; tBuAla = CC(C)(C)C[C@H](N)C(=O)O; CH2 = C([*:1])[*:2]

The compounds below were run against T1, DLL3 (Homo sapiens, UniProt Q9NYJ7) (assay: SPR KD, biotinylated human DLL3 on streptavidin chip (Table 8)). Conditions: biotinylated human DLL3 on streptavidin sensor chip, 25° C., 1:1 binding model; read-out: SPR KD.
T1 sequence (Q9NYJ7 27-618): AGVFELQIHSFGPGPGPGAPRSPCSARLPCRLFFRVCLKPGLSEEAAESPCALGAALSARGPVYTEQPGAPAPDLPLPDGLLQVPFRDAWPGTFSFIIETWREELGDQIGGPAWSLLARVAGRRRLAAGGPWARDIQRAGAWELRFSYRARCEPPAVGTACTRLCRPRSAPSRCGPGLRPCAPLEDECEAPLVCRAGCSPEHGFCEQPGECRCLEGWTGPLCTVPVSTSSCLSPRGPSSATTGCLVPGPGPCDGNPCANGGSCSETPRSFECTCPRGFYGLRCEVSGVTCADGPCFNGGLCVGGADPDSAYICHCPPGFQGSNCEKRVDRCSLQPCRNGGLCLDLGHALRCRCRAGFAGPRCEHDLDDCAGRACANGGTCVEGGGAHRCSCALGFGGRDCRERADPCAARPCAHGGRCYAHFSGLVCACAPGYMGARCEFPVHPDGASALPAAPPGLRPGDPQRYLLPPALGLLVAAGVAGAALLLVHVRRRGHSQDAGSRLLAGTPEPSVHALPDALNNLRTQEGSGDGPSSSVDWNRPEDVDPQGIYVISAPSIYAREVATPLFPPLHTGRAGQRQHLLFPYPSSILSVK
Set-up: biotin (biotinylated)
Source text: Biotinylated target ligand human DLL3 was immobilized on a streptavidin sensor chip. A reference surface was set up for nonspecific binding and refractive index changes. […] Sensorgram curves were fitted with 1:1 binding model, and affinity and kinetic parameters were obtained using Biacore Insight evaluation 4.0. software.

Row | Kd | Structure (SMILES)
1 | < 1 nM | CC(=O)N[C@@H](Cc1c[nH]c2ccccc12)C(=O)N[C@H](C(=O)N[C@@H](CC(C)(C)C)C(=O)N[C@H]1CSCSC[C@@H](C(=O)N[C@@H](Cc2c[nH]c3ccccc23)C(=O)N2CCC[C@H]2C(N)=O)NC(=O)[C@H](CC(=O)O)NC(=O)[C@H](CCCCNC(=O)CN2CCN(CC(=O)O)CCN(CC(=O)O)CCN(CC(=O)O)CC2)NC(=O)[C@H](Cc2ccc3ccccc3c2)NC(=O)[C@H](CC(N)=O)NC(=O)[C@H](CC2CCNCC2)NC1=O)[C@@H](C)O [compound 94] (Ac-WT[tBuAla]C[Ala(piperidin-4-yl)]N[2Nal]K(DOTA)DCWP-NH2; linker 4-10 via CH2)
2 | 100 to 300 nM | CC(=O)N[C@H](Cc1c[nH]c2ccccc12)C(=O)N[C@@H](C(=O)N[C@@H](CC(C)(C)C)C(=O)N[C@@H]1CSCSC[C@@H](C(=O)N[C@@H](Cc2c[nH]c3ccccc23)C(=O)N2CCC[C@H]2C(N)=O)NC(=O)[C@H](CC(=O)O)NC(=O)[C@H](CCCCNC(=O)CN2CCN(CC(=O)O)CCN(CC(=O)O)CCN(CC(=O)O)CC2)NC(=O)[C@H](Cc2ccc3ccccc3c2)NC(=O)[C@H](CC(N)=O)NC(=O)[C@H](CC(N)=O)NC1=O)[C@H](C)O [compound 423, Ac-W-T-(t-Bu-Ala)-[D-Cys(1)]-N-N-(2Nal)-Lys(DOTA)-D-C(1)-W-P-CONH2] (Ac-[dW][dT][tBuAla][dC]NN[2Nal]K(DOTA)DCWP-NH2; linker 4-10 via CH2)
3 | 10 to 100 nM | CC[C@H](C)[C@H](NC(=O)[C@@H](NC(=O)[C@H](Cc1ccc(C(F)(F)F)cc1)NC(C)=O)[C@@H](C)O)C(=O)N[C@H]1CSSC[C@@H](C(=O)N[C@@H](Cc2c[nH]c3ccccc23)C(=O)N2CCC[C@H]2C(N)=O)NC(=O)[C@H](CC(=O)O)NC(=O)[C@H](Cc2cnc[nH]2)NC(=O)[C@H](Cc2c[nH]c3ccccc23)NC(=O)[C@H](CC(N)=O)NC(=O)[C@H](CC(N)=O)NC1=O [compound 215, Ac-(4CF3-F)-T-I-C(3)-N-N-W-H-D-C(3)-W-P-CONH2] (Ac-[Phe(4-CF3)]TICNNWHDCWP-NH2; disulfide 4-10)

Second part, the compound before the results:

Row | Structure (SMILES) | Kd
4 | CC[C@H](C)[C@H](NC(=O)[C@@H](NC(=O)[C@H](Cc1c[nH]c2ccccc12)NC(C)=O)[C@@H](C)O)C(=O)N[C@H]1CSSC[C@@H](C(=O)N[C@@H](Cc2c[nH]c3ccccc23)C(=O)N2CCC[C@H]2C(N)=O)NC(=O)[C@H](CC(=O)O)NC(=O)[C@H](Cc2c[nH]cn2)NC(=O)[C@H](Cc2ccc(F)cc2)NC(=O)[C@H](CC(N)=O)NC(=O)[C@H](CC(N)=O)NC1=O [compound 49, Ac-W-T-I-C(3)-N-N-(4Fluoro-F)-H-D-C(3)-W-P-CONH2] (Ac-WTICNN[Phe(4-F)]HDCWP-NH2; disulfide 4-10) | 1 to 10 nM
5 | CC[C@H](C)[C@H](NC(=O)[C@@H](NC(=O)[C@H](Cc1c[nH]c2ccccc12)NC(=O)[C@H](CCSC)NC(C)=O)[C@@H](C)O)C(=O)N[C@H]1CSSC[C@@H](C(=O)N[C@@H](Cc2c[nH]c3ccccc23)C(=O)N2CCC[C@H]2C(N)=O)NC(=O)[C@H](CC(=O)O)NC(=O)[C@H](Cc2cnc[nH]2)NC(=O)[C@H](Cc2c[nH]c3ccccc23)NC(=O)[C@H](CC(N)=O)NC(=O)[C@H](C)NC1=O [compound 15, Ac-M-W-T-I-C(3)-(L-Ala)-N-W-H-D-C(3)-W-P-CONH2] (Ac-MWTICANWHDCWP-NH2; disulfide 5-11) | 1 to 10 nM
6 | CC[C@H](C)[C@H](NC(=O)[C@@H](NC(=O)[C@H](Cc1c[nH]c2ccccc12)NC(=O)[C@H](CCSC)NC(C)=O)[C@@H](C)O)C(=O)N[C@H]1CSSC[C@@H](C(=O)N[C@@H](Cc2cn(C)c3ccccc23)C(=O)N2CCC[C@H]2C(N)=O)NC(=O)[C@H](CC(=O)O)NC(=O)[C@H](Cc2c[nH]cn2)NC(=O)[C@H](Cc2c[nH]c3ccccc23)NC(=O)[C@H](CC(N)=O)NC(=O)[C@H](CC(N)=O)NC1=O [compound 43, Ac-M-W-T-I-C(3)-N-N-W-H-D-C(3)-(1Me-W)-P-CONH2] (Ac-MWTICNNWHDC[Trp(1-Me)]P-NH2; disulfide 5-11) | 10 to 100 nM
